Laboratory results taken from patent US8039670B2, “Analogs of alpha galactosyceramide and uses thereof” (Ludwig Institute for Cancer Research, priority 2005, dated 2011).

Legend:
[1] = system: IL-12p40 released by the DC; experiment: IL-12p40 ELISA of supernatants of DC/iNKT co-cultures; format: cell-based, human; details: DC/iNKT co-culture, 24 hours
Experimental: (§1) Different analogs of α-GalCer as indicated or LPS were added to co-cultures of human DC and iNKT cells. (A) Maturation of the DC was assessed after 40 h, gating on CD11c positive cells. Histograms indicate the CD83 and CD86 profiles of DC from different treatments; the percentages indicate the percentage of CD83hi mature DC and the numbers in parenthesis, the mean fluorescence intensity of the population contained within the labeled gate. DC and iNKT cells were co-cultured in the presence of different analogs of α-GalCer for 24 hours. Supernatants were analyzed using ELISA for the presence of (B) IL-12p40 released by the DC and (C) IFN-γ from the iNKT cells. […] Cells were co-cultured in the presence of the indicated concentration of analog and the percentages of DC with increased CD83/CD80 are shown. […] Viability of α-GalCer or analog-pulsed DC was assessed after 40 h co-culture in the presence of iNKT cells by flow cytometry. Cells were stained with propidium iodide and the percentage of live CD11c gated cells remaining in the culture are shown.
(§2) Human monocyte-derived DC were pulsed with 150 ng of different inositol analogs and co-cultured with iNKT cells for 24 h. […] Numbers indicate the mean fluorescence intensity of the histogram gated on CD11c^+ cells.
Release of IL-12p40 (and bioactive p75) by DC is a marker of activation and is thought to play an important role in regulating the profile of the immune response generated in response to those DC (Trinchieri et al, Nat Rev Immunol, 2003, 3; 133-46).

[2] = system: IFN-γ from the iNKT cells; experiment: IFN-γ ELISA of supernatants of DC/iNKT co-cultures; format: cell-based, human; details: analogs presented by DC
Experimental: as §1, §2

[3] = system: IL-4 and IFN-γ; experiment: Serum cytokines after i.v. injection into mice (ELISA); format: in vivo, C57BL/6 mice; details: for cytokine release in serum (IL-4, IFN-γ, IL-12p40/70): wild type mice, 1 μg i.v., 2, 6 and 18-24 h
Experimental: C57BL/6 or iNKT^−/− mice were injected i.v. with 1 μg of vehicle, α-GalCer, analog or 25 μg MPL. Twenty hours after injection splenocytes were stained with antibodies against CD11c, B220 and CD86 and analyzed by flow cytometry. (A) Maturation was assessed by the upregulation of CD86 at the cell surface, gating on DC (CD11c^+). Mean fluorescence intensity for each histogram is indicated. These are representative profiles of two independent experiments. 2, 6 and 18-24 h after injection as described, the mice were bled and the serum tested with ELISA for the presence of (B) IL-4 and (C) IFN-γ released in response to the analog.
Stimulation of iNKT cells by α-GalCer in the context of CD1d rapidly induces release of significant levels of a number of cytokines including IFN-γ and IL-4 (Burdin, Brossay et al, J Immunol, 1998, 161; 3271-81), IL-3 and GM-CSF (Leite-de-Moraes, Lisbonne et al, Eur J Immunol, 2002, 32; 1897-904) with other downstream cell-types including DC (Kitamura, Iwakabe et al, J Exp Med, 1999, 189; 1121-8) and NK cells (Carnaud, Lee et al, J Immunol, 1999, 163; 4647-50) being activated.

[4] = system: human monocyte derived DCs; experiment: Example A: DC maturation markers in human monocyte derived DC with NKT cells (FACS); format: cell-based; details: 100 ng/ml, 36 hours, 10 DC/NKT cell
Experimental: The methodology of Salio, et al., J. Immunol., 167:1188-1197 (2001), incorporated by reference, was followed. In brief, 2×105 human monocyte derived DCs were pulsed with 100 ng/ml of one of Compounds 2, 3, αGal-Cer, or vehicle solution, as a control. For DC pulsing, each of arabinitol ceramide (Compound 1), threitol ceramide (Compound 3), glycerol ceramide (Compound 2) and αGal-Cer was solubilized in vehicle solution (0.5% Tween 20/PBS), and added to the medium of the DC cultures. […] After 36 hours, supernatant was removed from cultures and analyzed for the presence of known DC maturation markers CD83, CD80, CD86, CD25, and CD38, all of which were analyzed via FACS, using well known methods.

[5] = system: p40 form of IL-12; experiment: Example A: IL-12 p40 ELISA as indication of DC stimulation; format: cell-based, human
[6] = system: OVA specific response; experiment: Example C: OVA specific CTL response in mice injected with OVA and compound (tetramer); format: in vivo; details: for OVA specific response: 400 μg OVA with 1 μg compound i.v.; for CTL response with MPL coinjected: coinjected with 25 μg MPL
Experimental: Subject animals, five mice per group, received an intravenous injection of 400 μg of ovalbumin (OVA) together with 1 μg of one of the compounds of the invention under examination or an equivalent volume of PBS diluted vehicle solution. A subset of mice were injected with 25 μg of the molecule MPL (Sigma-Aldrich; extracted from Salmonella Minnesota) solubilized in PBS.
Following the injections, blood was obtained from lateral tail veins, and PBLs were isolated, using standard methods. The PBLs were then stained, directly, […], with tetrameric, H-2 Kb/OVA 257-264, H-21 Kb complexes, following Palmowski, et al., J. Immunol., 168:4391-4398 (2002), incorporated by reference. The tetramers were prepared in accordance with Whilan, et al., J. Immunol., 163:4342-4348 (1999), incorporated by reference.

[7] = system: DCs obtained from the spleen; experiment: Example E: phenotyping of spleen DCs after tail vein injection (CD86); format: in vivo, mice; details: 1 μg tail vein, 24 h
Experimental: In brief, in each experiment, 1 μg of one of a selection of compounds of the invention was injected into the tail vein of subject mice. 24 h later spleen tissue was removed from the animals and gently teased through gauze into complete medium, supplemented with 5 mM of EDTA. Cells were enriched for CD11c by anti-CD11, magnetic beads using published techniques. Once enriched, they were assayed for maturation markers using antibody staining and flow cytometry. Non-specific staining was addressed by using an antibody specific for the Fc-RIII/II receptor.

Structure (SMILES)	IL-12p40 level relative to that seen with α-GalCer [1]	IFN-γ released by the iNKT cells [2]	skewing of cytokine response to Th2 ([3]; compared with OCH)	potency of cytokine induction compared with α-GalCer ([3]; equivalent doses)	cytokine release in serum (IL-4, IFN-γ, IL-12p40/70) [3]	induction of DC maturation markers (CD83, CD80, CD86, CD25, CD38) [4]	IL-12 potency relative to αGal-Cer [5]	OVA specific response [6]	CTL response with MPL coinjected [6]	induction of CD86 on spleen DC in vivo [7]	IL-12p40 released [1]	IL-12 potency, fold less potent than Compound 3 [5]
CCCCCCCCCCCCCCCCCCCCCCCCCC(=O)N[C@@H](COC[C@H](O)[C@@H](O)CO)[C@H](O)[C@H](O)CCCCCCCCCCCCCC [Compound 3, Threitol Ceramide]	approximately 50%	~20 ng/mL	Neither compound showed a skewed Th2 cytokine response	less potent than α-GalCer at equivalent doses	detected in the serum with a similar time-course to that seen with α-GalCer	DC maturation markers are induced	approximately 50%	enhancement of the OVA specific response	enhancement of the CTL response	did not induce the DC86 marker significantly	–	–
CCCCCCCCCCCCCCCCCCCCCCCCCC(=O)N[C@@H](CO[C@H]1OC(CO)[C@H](O)C(O)C1O)[C@H](O)[C@H](O)CCCCCCCCCCCCCC (stereo partly drawn) [α-GalCer, α galactosylceramide, reference compound]	–	approximately 40 ng/ml	–	–	–	–	–	enhancement of the OVA specific response	enhancement of the CTL response	induced CD86 in vivo similarly	significant levels of IL-12p40	–
CCCCCCCCCCCCCCCCCCCCCCCCCC(=O)N[C@@H](COC[C@@H](O)CO)[C@H](O)[C@H](O)CCCCCCCCCCCCCC [Compound 2, Glycerol Ceramide]	approximately 50%	~20 ng/mL	–	–	did not induce any detectable cytokine release	DC maturation markers are induced	–	Enhancement was weakest	–	induced CD86 in vivo similarly	–	approximately 1000 fold
